Laboratory results reported in patent US11007194B2, “Method of treating a proliferative disease” (Array BioPharma Inc., priority 2011, dated 2021).

Tested on: Hmex1906 primary human melanoma tumors
Assay: Hmex1906 primary human melanoma xenograft in nude mice, emergence of resistance under continuous vs intermittent dosing
Type: in vivo
Conditions: 5 mg/kg bid
Method: Hmex1906 primary human melanoma tumors are implanted at passage 3 into nude mice. The mice were monitored until the implanted tumors reached 200-400 mm^3. Once this size is reached, the mice are dosed bid with 5 mg/kg of a Raf inhibitor (Compound of Formula II) for 4 weeks. Some of the mice continue treatment while others are subject to an intermittent treatment schedule of 4 weeks of treatment and 2 weeks of drug holiday.

COC(=O)N[C@@H](C)CNc1nccc(-c2cn(C(C)C)nc2-c2cc(Cl)cc(NS(C)(=O)=O)c2F)n1 [Compound of Formula II]
emergence of resistance to the BRAF inhibitor (continuous dosing, nude mice with Hmex1906 tumors (200-400 mm^3 at start)): Resistance emerged in all mice | emergence of resistance to the BRAF inhibitor (intermittent schedule: 4 weeks of treatment and 2 weeks of drug holiday, nude mice with Hmex1906 tumors, 5 mg/kg): no evidence of resistance | emergence of resistance to the BRAF inhibitor (intermittent schedule: 4 weeks of treatment and 2 weeks of drug holiday, nude mice with Hmex1906 tumors, listed as BRAF inhibitor of formula II, 5 mg/kg): delays or prevents the onset of resistance
